Results: the METLIN SMRT retention time set (Domingo-Almenara et al. 2019)

Assay: gradient 5% acetonitrile 3 min, to 50% in 2 min, to 85% in 15 min, held 3 min, 100 µL/min
Conditions: column: Zorbax Extend-C18 2.1 x 50 mm; eluents: water / acetonitrile, 0.1% formic acid
Outline: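 The mobile phases were water and acetonitrile, each with 0.1% formic acid, pumped at 100 μL/min through a Zorbax Extend-C18 column (2.1 × 50 mm, 1.8 μm). Pure standards were injected as mixtures of ~100 molecules and detected by a quadrupole time-of-flight mass spectrometer in positive and negative ionization mode. Retention time came from computationally picked adduct peaks, each inspected by hand.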

Cc1ccc(CNC(=O)C2(C)CN(S(C)(=O)=O)CC(=O)N2c2ccccc2F)cc1 (configuration not stated)
RP-LC retention time: 804 s

CN1[C@@H]2CC(OC(=O)[C@H](CO)c3ccccc3)C[C@H]1[C@@H]1O[C@@H]12 (some centres not stated)
RP-LC retention time: 619 s

O=C(c1c(F)cccc1Cl)N1CCN(c2ccc3nnc(-c4ccco4)n3n2)CC1
RP-LC retention time: 680 s

CC(C)NC(=O)c1cc(C2CC2)[nH]n1
RP-LC retention time: 644 s

Cc1ccc(Cl)cc1N1CCN(C(=O)C2CCN(S(=O)(=O)c3cn(C)cn3)CC2)CC1
RP-LC retention time: 859 s

Cc1ccc2c(Nc3cccc(C)c3C)c(-c3nc(C)no3)cnc2n1
RP-LC retention time: 797 s

O=C(c1cccnc1)N1CCC(n2c(-c3ccsc3)nc3cccnc32)C1 (configuration not stated)
RP-LC retention time: 576 s

CC(C)Cn1nc(CNC(=O)c2ccoc2)c2ccccc21
RP-LC retention time: 846 s

O=C1C(=O)N(Cc2ccc(C(=O)N3CCOCC3)cc2)CCN1Cc1ccc(F)cc1
RP-LC retention time: 652 s

CN1C(=O)COc2cc(-c3noc(C(=O)NCc4cccnc4)n3)ccc21
RP-LC retention time: 613 s

CCCc1nc2cccnc2n1C1CCN(C(=O)c2ccc(OC)nc2)C1 (configuration not stated)
RP-LC retention time: 588 s

CCc1nc2cc(-c3noc(-c4cccc(F)c4)n3)ccc2o1
RP-LC retention time: 1230 s

Cc1cc2nc(C)c(CCC(=O)O)c(C)n2n1
RP-LC retention time: 597 s

CC1=C(c2ccccc2)S(=O)(=O)N=C1N1CCCN(C(=O)c2ccsc2)CC1
RP-LC retention time: 571 s

CC(=O)N1CCC(C(=O)N2CCCCCCNC(=O)[C@@H]3CCCC[C@@H]32)CC1
RP-LC retention time: 657 s

O=C(CCCSc1ccc(F)cc1)Nc1nnc(Cc2ccc3c(c2)OCO3)o1
RP-LC retention time: 807 s

CCC1Oc2ccc(S(=O)(=O)N3CCC(C(=O)NCc4ccc(Cl)cc4)CC3)cc2NC1=O (configuration not stated)
RP-LC retention time: 887 s

OC(CN1CCNCC1)Cn1c2ccc(Br)cc2c2cc(Br)ccc21 (configuration not stated)
RP-LC retention time: 732 s

CCn1c(C(=O)NC(C)CCc2ccccc2)cc2sccc21 (configuration not stated)
RP-LC retention time: 1110 s

COc1ccc(C2Cn3nnc(C(=O)N4CCC(C(=O)NC5CCCC5)CC4)c3CO2)cc1 (configuration not stated)
RP-LC retention time: 769 s

Cc1cccc(S(=O)(=O)Nc2ccc3c(c2)CCC(=O)N3CC(C)C)c1
RP-LC retention time: 896 s

CCCc1cc(N2CCN(C(=O)c3ccncc3)CC2)nc2nnc(CC)n12
RP-LC retention time: 580 s

CCOc1ccc(-c2nc(C#N)c(N3CCN(C(=O)c4ccccc4Cl)CC3)o2)cc1
RP-LC retention time: 986 s

CCOc1ccc2nc(NC(=O)Cc3csc4nc(-c5ccc(OC)c(OC)c5)cn34)sc2c1
RP-LC retention time: 784 s

O=C(CCSc1ccccc1)NCC(O)c1cccc2ccccc12 (configuration not stated)
RP-LC retention time: 841 s

Cc1cc(N2CCCCC2)n2nc(CN3CCC4(CC3)OCCO4)nc2n1
RP-LC retention time: 580 s

Cc1noc(C)c1CC(=O)N1CCOc2ccc(NC(=O)C3CC3)cc2C1
RP-LC retention time: 676 s

Cc1onc(-c2ccccc2Cl)c1C(=O)NCCN(C)C
RP-LC retention time: 591 s

N#Cc1ccccc1NC(=O)C(=O)NCC1CCN(C(=O)c2ccccc2F)CC1
RP-LC retention time: 744 s

CCCS(=O)(=O)N1CCc2ccc(NC(=O)c3cccn(C)c3=O)cc2C1
RP-LC retention time: 731 s

O=C(Nc1cccc(OCc2nnc(-c3ccccc3)o2)c1)c1ccnc(Cl)c1
RP-LC retention time: 926 s

O=C(c1ccccc1Br)N1CCN(c2nc(CN3CCCC3)cs2)CC1
RP-LC retention time: 627 s

O=C(Nc1ccc(F)cc1F)C1CCCN(S(=O)(=O)c2c[nH]c(C(=O)N3CCCCCC3)c2)C1 (configuration not stated)
RP-LC retention time: 897 s

Cc1ccc(-c2nccn3cc(C(=O)NC4CC4)nc23)cc1
RP-LC retention time: 803 s

N#Cc1cccc(C(=O)NC2CCN(c3cc(-c4ccc(Cl)cc4)[nH]n3)C2)c1 (configuration not stated)
RP-LC retention time: 728 s

O=C(Cn1c(=O)oc2ccccc21)NCC1CCN(C(=O)c2ccccc2F)CC1
RP-LC retention time: 671 s

COC(=O)Cn1c2ccc(F)cc2c2nc3ccccc3nc21
RP-LC retention time: 658 s
